Laboratory results reported in EP1210336B1, “SUBSTITUTED BENZIMIDAZOLES AS NON-NUCLEOSIDE INHIBITORS OF REVERSE TRANSCRIPTASE” (THE UNITED STATES OF AMERICA, as represented by the …, priority 1999, dated 2001).

Columns and labels:
Test in all cases: Cytopathic cell killing assay, cross-resistance profile, infected MT-4 cells
Assay type in all cases: cell-based
HIV-1 variant V106A = tested on: HIV-1 variant V106A
In short: (§1)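 Infected cultures (MOI chosen for complete cell death at 6 days, isolates matched by pre-titering) received serially diluted compound. Surviving cells were detected colorimetrically via XTT at 450 nm.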

HIV-1 variant K101E = tested on: HIV-1 variant K101E
In short: as §1

HIV-1 variant A98G = tested on: HIV-1 variant A98G
In short: as §1

[1] = tested on: HIV-1 isolate 4xAZT/Y181C
In short: as §1

HIV-1 variant V108I = tested on: HIV-1 variant V108I
In short: as §1

HIV-1 variant K103N = conditions: for EC50: isolate K103N
In short: as §1

HIV-1 variant Y188C = tested on: HIV-1 variant Y188C
In short: as §1

HIV-1 variant L74V = tested on: HIV-1 variant L74V
In short: as §1

HIV-1 variant Y181C = conditions: isolate Y181C
In short: as §1

HIV-1 variant L100I = tested on: HIV-1 variant L100I
In short: as §1

HIV-1 isolate 4xAZT = tested on: HIV-1 isolate 4xAZT
In short: as §1

HIV-1 variant V179D = conditions: isolate V179D
In short: as §1

[2] = tested on: HIV-1 isolate 4xAZT/L100I
In short: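 Cytopathic protection assay: cells at 5 x 10^3/well infected with pre-titered HIV isolate (e.g., MOI 0.01-0.05), compound serial half-log dilutions in triplicate.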

[3] = Human immunodeficiency virus 1, MT4, Table 4, isolate V106A
[4] = Human immunodeficiency virus 1, MT4, Table 8, isolate V 106A
[5] = Human immunodeficiency virus 1, MT4, Table 9, isolate V106A
[6] = Human immunodeficiency virus 1, MT4, Table 4, isolate K101E
[7] = Human immunodeficiency virus 1, MT4, Table 8, isolate K101E
[8] = Human immunodeficiency virus 1, MT4, Table 9, isolate KIOIE
[9] = Human immunodeficiency virus 1, MT4, Table 4, isolate A98G
[10] = Human immunodeficiency virus 1, MT4, Table 8, isolate A9SG
[11] = Human immunodeficiency virus 1, MT4, Table 9, isolate A98G
[12] = Human immunodeficiency virus 1, MT4, Table 4, isolate 4xAZT/Y181C
[13] = Human immunodeficiency virus 1, MT4, Table 8, isolate 4XAZT /Y181C
[14] = Human immunodeficiency virus 1, MT4, Table 4, isolate V108I
[15] = Human immunodeficiency virus 1, MT4, Table 8, isolate V1081
[16] = Human immunodeficiency virus 1, MT4, Table 9, isolate V1081
[17] = Human immunodeficiency virus 1, MT4, Table 4
[18] = Human immunodeficiency virus 1, MT4, Table 8
[19] = Human immunodeficiency virus 1, MT4, Table 9
[20] = Human immunodeficiency virus 1, MT4, Table 4, isolate Y188C
[21] = Human immunodeficiency virus 1, MT4, Table 8, isolate Y 188C
[22] = Human immunodeficiency virus 1, MT4, Table 9, isolate Y188C
[23] = Human immunodeficiency virus 1, MT4, Table 4, isolate L74V
[24] = Human immunodeficiency virus 1, MT4, Table 8, isolate 1.74V
[25] = Human immunodeficiency virus 1, MT4, Table 9, isolate 1.74 V
[26] = Human immunodeficiency virus 1, MT4, Table 4, isolate L1001
[27] = Human immunodeficiency virus 1, MT4, Table 8, isolate 1.1001
[28] = Human immunodeficiency virus 1, MT4, Table 9, isolate L1001
[29] = Human immunodeficiency virus 1, MT4, Table 4, isolate 4xAZT
[30] = Human immunodeficiency virus 1, MT4, Table 8, isolate 4XAZT
[31] = Human immunodeficiency virus 1, MT4, Table 4, isolate 4xAZT/L.1001
[32] = Human immunodeficiency virus 1, MT4, Table 8, isolate 4XA7T L 1001
[33] = Human immunodeficiency virus 1, MT4, Table 9, isolate 4XAZT /L1001
[34] = Human immunodeficiency virus 1, MT4, Table 10 (values in µM)

SMILES: Fc1cccc(F)c1C1SCc2nc3ccccc3n21 (stereo not drawn) [TZB, 1-(2,6-difluorophenyl)-1H,3H-thiazolo[3,4-a]benzimidazole, reference compound]
- EC50 (HIV-1 variant V106A; [3]): > 20 µM
- EC50 (HIV-1 variant V106A; [4]): 5.7 µM
- EC50 (HIV-1 variant V106A; [5]): > 10 µM
- EC50 (HIV-1 variant K101E; [6]): > 20 µM
- EC50 (HIV-1 variant K101E; [7]): > 10 µM
- EC50 (HIV-1 variant K101E; [8]): > 10 µM
- EC50 (HIV-1 variant A98G; [9]): 17.7 µM
- EC50 (HIV-1 variant A98G; [10]): 10 µM
- EC50 (HIV-1 variant A98G; [11]): 10 µM
- EC50 [1, 12]: 14.5 µM
- EC50 [1, 13]: > 10 µM
- EC50 ([1]; Human immunodeficiency virus 1, MT4, Table 9, isolate 4XAZT /Y181C): > 10 µM
- EC50 (HIV-1 variant V108I; [14]): 9.7 µM
- EC50 (HIV-1 variant V108I; [15]): 3.9 µM
- EC50 (HIV-1 variant V108I; [16]): 5.7 µM
- EC50 (HIV-1 variant K103N; [17]): > 20 µM
- EC50 (HIV-1 variant K103N; [18]): > 10 µM
- EC50 (HIV-1 variant K103N; [19]): > 20 µM
- activity against the K103N mutation / isolate (HIV-1 variant K103N; result in words, cytopathic cell killing assay): ineffective
- EC50 (HIV-1 variant Y188C; [20]): > 20 µM
- EC50 (HIV-1 variant Y188C; [21]): > 20 µM
- EC50 (HIV-1 variant Y188C; [22]): > 20 µM
- EC50 (HIV-1 variant L74V; [23]): 0.7 µM
- EC50 (HIV-1 variant L74V; [24]): 0.8 µM
- EC50 (HIV-1 variant L74V; [25]): 0.5 µM
- EC50 (HIV-1 variant Y181C; [17]): 16.3 µM
- EC50 (HIV-1 variant Y181C; [19]): > 10 µM
- EC50 (HIV-1 variant L100I; [26]): 12.2 µM
- EC50 (HIV-1 variant L100I; [27]): 6.6 µM
- EC50 (HIV-1 variant L100I; [28]): 6.6 µM
- EC50 (HIV-1 isolate 4xAZT; [29]): 1.5 µM
- EC50 (HIV-1 isolate 4xAZT; [30]): 1.1 µM
- EC50 (HIV-1 variant V179D; [17]): 3.1 µM
- EC50 (HIV-1 variant V179D; [18]): > 10 µM
- EC50 (HIV-1 variant V179D; [19]): 3.9 µM
- EC50 [2, 31]: 1.7 µM
- EC50 [2, 32]: 1.1 µM
- EC50 [2, 33]: 1.1 µM

SMILES: Cc1cccc2c1nc(-c1c(F)cccc1F)n2Cc1c(F)cccc1F [compound 33, 1-(2,6-difluorobenzyl)-2-(2,6-difluorophenyl)-4-methylbenzimidazole]
- EC50 (HIV-1 variant V106A; [3]): 20 µM
- EC50 (HIV-1 variant V106A; [4]): > 10 µM
- EC50 (HIV-1 variant V106A; [5]): > 10 µM
- EC50 (HIV-1 variant K101E; [6]): 16.7 µM
- EC50 (HIV-1 variant K101E; [7]): > 10 µM
- EC50 (HIV-1 variant K101E; [8]): > 10 µM
- EC50 (HIV-1 variant K101E; Human immunodeficiency virus 1, MT4, Table 10 (values in µM), isolate K101E): 16.7 µM
- EC50 (HIV-1 variant A98G; [9]): 1.4 µM
- EC50 (HIV-1 variant A98G; [10]): 27 µM
- EC50 (HIV-1 variant A98G; [11]): 2.7 µM
- EC50 [1, 12]: 3.5 µM
- EC50 [1, 13]: 3.5 µM
- EC50 (HIV-1 variant V108I; [14]): 2.8 µM
- EC50 (HIV-1 variant V108I; [15]): 2.8 µM
- EC50 (HIV-1 variant V108I; [16]): 2.8 µM
- EC50 (HIV-1 variant V108I; Human immunodeficiency virus 1, MT4, Table 10 (values in µM), isolate V108l): 2.8 µM
- EC50 (HIV-1 variant K103N; [17]): 8.1 µM
- EC50 (HIV-1 variant K103N; [18]): > 20 µM
- EC50 (HIV-1 variant K103N; [19]): > 20 µM
- EC50 (HIV-1 variant K103N; [34]): 8.1 µM
- EC50 (HIV-1 variant Y188C; [20]): 2.3 µM
- EC50 (HIV-1 variant Y188C; [21]): 3 µM
- EC50 (HIV-1 variant Y188C; [22]): 3 µM
- EC50 (HIV-1 variant Y188C; Human immunodeficiency virus 1, MT4, Table 10 (values in µM), isolate Y188C): 2.3 µM
- EC50 (HIV-1 variant L74V; [23]): 0.1 µM
- EC50 (HIV-1 variant L74V; [24]): 0.3 µM
- EC50 (HIV-1 variant L74V; [25]): 0.3 µM
- EC50 (HIV-1 variant Y181C; [17]): 6 µM
- EC50 (HIV-1 variant Y181C; [19]): 4.3 µM
- EC50 (HIV-1 variant Y181C; [34]): 6 µM
- EC50 (HIV-1 variant L100I; [26]): 0.3 µM
- EC50 (HIV-1 variant L100I; [27]): 0.3 µM
- EC50 (HIV-1 variant L100I; [28]): 0.3 µM
- EC50 (HIV-1 variant L100I; Human immunodeficiency virus 1, MT4, Table 10 (values in µM), isolate L1001): 0.3 µM
- EC50 (HIV-1 isolate 4xAZT; [29]): 0.1 µM
- EC50 (HIV-1 isolate 4xAZT; [30]): 0.1 µM
- EC50 (HIV-1 isolate 4xAZT; Human immunodeficiency virus 1, MT4, Table 9, isolate 4XAZT): 0.1 µM
- EC50 (HIV-1 variant V179D; [17]): 0.5 µM
- EC50 (HIV-1 variant V179D; [18]): 0.7 µM
- EC50 (HIV-1 variant V179D; [19]): 0.7 µM
- EC50 [2, 31]: 0.2 µM
- EC50 [2, 32]: 0.2 µM
- EC50 [2, 33]: 0.2 µM
